The record followed here is patent publication US20230295197A1, “STAT5 and STAT6 Degraders and Uses Thereof” (REGENTS OF THE UNIVERSITY OF MICHICAN, priority 2022, published 2023).

Where two headings read alike, the source gives them in different places. *1 amine or outer side, *2 acyl side, *3 side chain or, on linkers, in order; H or OH if unused. Where a SMILES comes first, the peptide text is derived from it. [ ]: non-standard residue; d: D form. The star is where a group is joined. Benzothienyl2CO(5-CF2PO3H2) = O=C(c1cc2cc(C(F)(F)P(=O)(O)O)ccc2s1)*; βAla(N-(4-Br-phenyl)) = O=C(CCN(c1ccc(Br)cc1)[*:1])[*:2]; NHBn(4-(4-Me-thiazol-5-yl)) = Cc1ncsc1-c1ccc(CN*)cc1; Hyp = O=C(O)[C@@H]1C[C@@H](O)CN1; Tle = CC(C)(C)[C@H](N)C(=O)O; Ahp = NCCCCCCC(=O)O

The test deals with T1, STAT6 (Homo sapiens, UniProt P42226).
T1 construct: endogenous in cells; host or cells: MOLM-16, KU-812, SKNO1, MB231, L1236
T1 sequence (P42226 1-847): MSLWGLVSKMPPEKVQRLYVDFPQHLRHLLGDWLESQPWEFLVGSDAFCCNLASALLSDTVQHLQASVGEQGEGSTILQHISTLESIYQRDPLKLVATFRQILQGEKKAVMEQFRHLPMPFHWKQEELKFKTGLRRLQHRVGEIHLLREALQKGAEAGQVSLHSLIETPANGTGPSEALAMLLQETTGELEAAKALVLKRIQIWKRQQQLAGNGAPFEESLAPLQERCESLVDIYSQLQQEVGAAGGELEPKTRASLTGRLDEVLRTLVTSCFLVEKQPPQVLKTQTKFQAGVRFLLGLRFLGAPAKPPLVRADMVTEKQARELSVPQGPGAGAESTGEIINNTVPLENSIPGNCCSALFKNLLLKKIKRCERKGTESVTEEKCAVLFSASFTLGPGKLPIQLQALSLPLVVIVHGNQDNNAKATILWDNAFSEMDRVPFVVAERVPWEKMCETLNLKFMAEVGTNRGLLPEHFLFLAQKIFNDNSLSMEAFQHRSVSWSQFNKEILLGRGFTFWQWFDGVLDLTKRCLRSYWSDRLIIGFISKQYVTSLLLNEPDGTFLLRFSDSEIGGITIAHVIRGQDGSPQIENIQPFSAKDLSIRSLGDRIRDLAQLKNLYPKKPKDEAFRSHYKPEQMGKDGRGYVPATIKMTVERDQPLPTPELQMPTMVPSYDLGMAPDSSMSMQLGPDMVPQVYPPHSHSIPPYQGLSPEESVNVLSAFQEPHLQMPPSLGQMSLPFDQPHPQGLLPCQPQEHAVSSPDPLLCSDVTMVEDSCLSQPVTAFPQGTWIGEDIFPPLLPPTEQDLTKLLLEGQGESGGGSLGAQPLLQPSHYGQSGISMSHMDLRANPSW
In words: Immunoblotting (Western blot) analysis of STAT6 degradation efficiency of degraders in treated cells. It is filed as cell-based. An outline of the steps: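 About 1 million cells per point, grown in 10% FBS medium at 37 °C/5% CO2, were exposed to compound at the indicated concentrations and times, then lysed in RIPA buffer with protease and phosphatase inhibitors. Equal protein (20-40 μg) was resolved by SDS-PAGE, blotted to PVDF, and probed with anti-STAT5, anti-STAT6 and anti-GAPDH antibodies.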

The mark [1] stands for this setting: MOLM-16 cells, class symbols, read-out: DC50 S6 MOLM-16.
Where [2] appears, read: L1236 cells, read-out: DC50 S6 L1236.

As a reminder, the DC50 is the concentration giving 50% degradation. As for `CC(C)(C)[C@H](NC(=O)c1cc2cc(C(F)(F)P(=O)(O)O)ccc2s1)C(=O)N1Cc2cc(OCC(=O)NCCCC#Cc3ccc4c(c3)C(=O)N(C3CCC(=O)NC3=O)C4=O)ccc2C[C@H]1C(=O)N1CCO[C@H](c2ccccc2)C1` (stereo partly drawn) [Compound 540, ((2-(((2S)-1-((3S)-7-(2-((5-(2-(2,6-dioxopiperidin-3-yl)-1,3-dioxoisoindolin-5-yl)pent-4-yn-1-yl)amino)-2-oxoethoxy)-3-((R)-2-phenylmorpholine-4-carbonyl)-3,4-dihydroisoquinolin-2(1H)-yl)-3,3-dimethyl-1-oxobutan-2-yl)carbamoyl)benzo[b]thiophen-5-yl)difluoromethyl)phosphonic acid], the DC50 under setting [1] was > 10 µM.

Consider `Cc1ncsc1-c1ccc([C@H](C)NC(=O)[C@@H]2C[C@@H](O)CN2C(=O)[C@@H](NC(=O)CCCNC(=O)CC(=O)N2CCN(C(=O)[C@@H](NC(=O)c3cc4cc(C(F)(F)P(=O)(O)O)ccc4s3)C(C)(C)C)[C@H](C(=O)N3CCO[C@H](c4ccccc4)C3)C2)C(C)(C)C)cc1` [Compound 445, (difluoro(2-(((S)-1-((S)-4-(3-((4-(((S)-1-((2S,4R)-4-hydroxy-2-(((S)-1-(4-(4-methylthiazol-5-yl)phenyl)ethyl)carbamoyl)pyrrolidin-1-yl)-3,3-dimethyl-1-oxobutan-2-yl)amino)-4-oxobutyl)amino)-3-oxopropanoyl)-2-((R)-2-phenylmorpholine-4-carbonyl)piperazin-1-yl)-3,3-dimethyl-1-oxobutan-2-yl)carbamoyl)benzo[b]thiophen-5-yl)methyl)phosphonic acid], for which the DC50 under setting [2] was > 10 µM and the DC50 under setting [1] is > 10 µM.

As for `Cc1ncsc1-c1ccc([C@H](C)NC(=O)[C@@H]2C[C@@H](O)CN2C(=O)[C@@H](NC(=O)CNC(=O)CO[C@H]2C[C@@H](C(=O)N3CCC[C@H](c4ccccc4)C3)N(C(=O)[C@@H](NC(=O)c3cc4cc(C(F)(F)P(=O)(O)O)ccc4s3)C(C)(C)C)C2)C(C)(C)C)cc1` [Compound 434, (difluoro(2-(((S)-1-((2S,4S)-4-(2-((2-(((S)-1-((2S,4R)-4-hydroxy-2-(((S)-1-(4-(4-methylthiazol-5-yl)phenyl)ethyl)carbamoyl)pyrrolidin-1-yl)-3,3-dimethyl-1-oxobutan-2-yl)amino)-2-oxoethyl)amino)-2-oxoethoxy)-2-((R)-3-phenylpiperidine-1-carbonyl)pyrrolidin-1-yl)-3,3-dimethyl-1-oxobutan-2-yl)carbamoyl)benzo[b]thiophen-5-yl)methyl)phosphonic acid], the DC50 runs as follows: under setting [2], > 10 µM; under setting [1], > 10 µM.

For the compound `CC(C)(C)[C@H](NC(=O)c1cc2cc(C(F)(F)P(=O)(O)O)ccc2s1)C(=O)N1Cc2cc(OCC(=O)NCCCCCC#Cc3cccc4c3C(=O)N(C3CCC(=O)NC3=O)C4=O)ccc2C[C@H]1C(=O)N1CCO[C@H](c2ccccc2)C1` (stereo partly drawn) [Compound 543, ((2-(((2S)-1-((3S)-7-(2-((7-(2-(2,6-dioxopiperidin-3-yl)-1,3-dioxoisoindolin-4-yl)hept-6-yn-1-yl)amino)-2-oxoethoxy)-3-((R)-2-phenylmorpholine-4-carbonyl)-3,4-dihydroisoquinolin-2(1H)-yl)-3,3-dimethyl-1-oxobutan-2-yl)carbamoyl)benzo[b]thiophen-5-y)difluoromethyl)phosphonic acid], the DC50 under setting [1] was > 10 µM. Regarding `Cc1ncsc1-c1ccc([C@H](C)NC(=O)[C@@H]2C[C@@H](O)CN2C(=O)[C@@H](NC(=O)CNC(=O)CC(=O)N2CCN(C(=O)[C@@H](NC(=O)c3cc4cc(C(F)(F)P(=O)(O)O)ccc4s3)C(C)(C)C)[C@H](C(=O)N3CCC[C@H](c4ccccc4)C3)C2)C(C)(C)C)cc1` [Compound 452, (difluoro(2-(((S)-1-((S)-4-(3-((2-(((S)-1-((2S,4R)-4-hydroxy-2-(((S)-1-(4-(4-methylthiazol-5-yl)phenyl)ethyl)carbamoyl)pyrrolidin-1-yl)-3,3-dimethyl-1-oxobutan-2-yl)amino)-2-oxoethyl)amino)-3-oxopropanoyl)-2-((R)-3-phenylpiperidine-1-carbonyl)piperazin-1-yl)-3,3-dimethyl-1-oxobutan-2-yl)carbamoyl)benzo[b]thiophen-5-yl)methyl)phosphonic acid], the DC50 reads like this: under setting [2], > 10 µM; under setting [1], > 10 µM. As for `CC(C)(C)[C@H](NC(=O)c1cc2cc(C(F)(F)P(=O)(O)O)ccc2s1)C(=O)N1Cc2cc(OCC(=O)NCCCC#Cc3cccc4c3C(=O)N(C3CCC(=O)NC3=O)C4=O)ccc2C[C@H]1C(=O)N1CCC[C@H](c2ccccc2)C1` (stereo partly drawn) [Compound 553, ((2-(((2S)-1-((3S)-7-(2-((5-(2-(2,6-dioxopiperidin-3-yl)-1,3-dioxoisoindolin-4-yl)pent-4-yn-1-yl)amino)-2-oxoethoxy)-3-((R)-3-phenylpiperidine-1-carbonyl)-3,4-dihydroisoquinolin-2(1H)-yl)-3,3-dimethyl-1-oxobutan-2-yl)carbamoyl)benzo[b]thiophen-5-yl)difluoromethyl)phosphonic acid], under setting [1], the DC50 is > 10 µM. Same read-out and setting: under `CC(C)(C)[C@H](NC(=O)c1cc2cc(C(F)(F)P(=O)(O)O)ccc2s1)C(=O)N1C[C@@H](OCC(=O)NCCC#Cc2ccc3c(c2)C(=O)N(C2CCC(=O)NC2=O)C3=O)C[C@H]1C(=O)N1CCC[C@H](c2ccccc2)C1` (stereo partly drawn) [Compound 496, ((2-(((2S)-1-((2S,4S)-4-(2-((4-(2-(2,6-dioxopiperidin-3-yl)-1,3-dioxoisoindolin-5-yl)but-3-yn-1-yl)amino)-2-oxoethoxy)-2-((R)-3-phenylpiperidine-1-carbonyl)pyrrolidin-1-yl)-3,3-dimethyl-1-oxobutan-2-yl)carbamoyl)benzo[b]thiophen-5-yl)difluoromethyl)phosphonic acid] stands > 10 µM. As for `CC(C)(C)[C@H](NC(=O)c1cc2cc(C(F)(F)P(=O)(O)O)ccc2s1)C(=O)N1C[C@@H](NC(=O)CCCCCC#Cc2cccc3c2CN(C2CCC(=O)NC2=O)C3=O)C[C@H]1C(=O)N1CCO[C@H](c2ccccc2)C1` (stereo partly drawn) [Compound 565, ((2-(((2S)-1-((2S,4S)-4-(8-(2-(2,6-dioxopiperidin-3-yl)-1-oxoisoindolin-4-yl)oct-7-ynamido)-2-((R)-2-phenylmorpholine-4-carbonyl)pyrrolidin-1-yl)-3,3-dimethyl-1-oxobutan-2-yl)carbamoyl)benzo[b]thiophen-5-yl)difluoromethyl)phosphonic acid], the DC50 is > 10 µM under setting [2] and > 10 µM under setting [1]. Regarding `CC(C)(C)[C@H](NC(=O)c1cc2cc(C(F)(F)P(=O)(O)O)ccc2s1)C(=O)N1C[C@@H](OCC(=O)NCCCCCCCCC#Cc2cccc3c2C(=O)N(C2CCC(=O)NC2=O)C3=O)C[C@H]1C(=O)N1CCC[C@H](c2ccccc2)C1` (stereo partly drawn) [Compound 503, ((2-(((2S)-1-((2S,4S)-4-(2-((10-(2-(2,6-dioxopiperidin-3-yl)-1,3-dioxoisoindolin-4-yl)dec-9-yn-1-yl)amino)-2-oxoethoxy)-2-((R)-3-phenylpiperidine-1-carbonyl)pyrrolidin-1-yl)-3,3-dimethyl-1-oxobutan-2-yl)carbamoyl)benzo[b]thiophen-5-yl)difluoromethyl)phosphonic acid], the DC50 under setting [1] is > 10 µM. As for `Cc1ncsc1-c1ccc(CNC(=O)[C@@H]2C[C@@H](O)CN2C(=O)[C@@H](NC(=O)CCCCCCNC(=O)CCN(C(=O)[C@@H]2CCCN2C(=O)[C@@H](NC(=O)c2cc3cc(C(F)(F)P(=O)(O)O)ccc3s2)C(C)(C)C)c2ccc(Br)cc2)C(C)(C)C)cc1` [Compound 399] ({Benzothienyl2CO(5-CF2PO3H2)}-[Tle]P[βAla(N-(4-Br-phenyl))][Ahp][Tle][Hyp]-{NHBn(4-(4-Me-thiazol-5-yl))}), where the note is “read-out: DC50 S6 MB231, MB231 cells”, the DC50 was > 10 µM. With `Cc1ncsc1-c1ccc(CNC(=O)[C@@H]2C[C@@H](O)CN2C(=O)[C@@H](NC(=O)CCCCCCCCCNC(=O)CO[C@@H]2C[C@@H](C(=O)N(C)c3ccc(Br)cc3)N(C(=O)[C@@H](NC(=O)c3cc4cc(C(F)(F)P(=O)(O)O)ccc4s3)C(C)(C)C)C2)C(C)(C)C)cc1` [Compound 421, ((2-(((S)-1-((2S,4R)-2-((4-bromophenyl)(methyl)carbamoyl)-4-(2-((10-(((S)-1-((2S,4R)-4-hydroxy-2-((4-(4-methylthiazol-5-yl)benzyl)carbamoyl)pyrrolidin-1-yl)-3,3-dimethyl-1-oxobutan-2-yl)amino)-10-oxodecyl)amino)-2-oxoethoxy)pyrrolidin-1-yl)-3,3-dimethyl-1-oxobutan-2-yl)carbamoyl)benzo[b]thiophen-5-yl)difluoromethyl)phosphonic acid], the DC50 reads like this: under setting [2], > 10 µM; (MB231 cells, read-out: DC50 S6 MB231) > 10 µM.
